The values below come from patent US20240166602A1, “SUBSTITUTED DIARYL COMPOUND AS WELL AS PREPARATION METHOD AND APPLICATION THEREOF” (SHANDONG FIRST MEDICAL UNIV & SHANDONG ACADEMY OF MEDICAL …, priority 2021, published 2024).

Each structure is given as a SMILES string. “Also recorded” adds a separate entry of the source. Where two headings read alike, the source gives them in different places.

What all share (format): cell-based
In assay [1] the test system is human melanoma (A375) cells. In words: MTT tumor cell growth inhibition, human melanoma (A375). The conditions noted are these: A375, 48 h culture, MTT method, read-out: IC50 value of target compound against cancer cell proliferation, A375. Here is the method:
(§1) Dissolve CHJ compound series with dimethyl sultbxide (DMSO, final concentration 0.4%), and use RPMI-1640 culture medium containing 15% fetal calf serum to prepare 1 mg/mL solution for future use. During drug administration in groups, use the culture medium to dilute it to the concentration needed.
(§2) Cell lines: human lung cancer (A549), Inman ovarian cancer (SKOV3), human melanoma (A375) and human colon cancer (LOVO) cell lines, all purchased from the Cell Bank of the Chinese Academy of Sciences, DMEM containing 15% fetal bovine serum (High Glucose) culture medium, placed in a 37° C., 5% CO2 incubator.
(§3) MTT is an oxidizing yellow dye with the chemical name of 3-(4,5-dimethyl-2-thiazolyl)-2,5-diphenyl-2-H-tetrazoliumbromide tetrazole bromide. The MMT method, also known as the MTT colorimetric method, can test the survival and growth of cells. The method is simple and easily accessible and often used to screet the substance with cytotoxic activity. The basic principle of testing, is that succinodehydrogenase can reduce exogenous MIT so that MTT is reduced to blueviolet crystal Formazan insoluble to water. The crystal deposits in cells. The succinodehydrogenase exists in the mitochondria of living cells, not in the dead cells. Therefore, the chromogenic reaction can only take place in living cells. Then, dissolve the blueviolet crystal Formazan contained in cells with dimethyl sulfoxide (DMSO), and measure its absorbancy with microplate reader so that the count of living cells is reflected indirectly. Within the scope of certain cell count, the amount of blueviolet crystal Formazan formed is positively correlated to the count of living cells.
(§4) Human lung cancer (A549), human ovarian cancer (SKOV3), human melanoma (A375) and human colon cancer (LOVO) ceilsare all adherent. Based on the growth rate of tumor cells, wash the adherent tumor cells in the logarithmic phase and digest them in 0.25% EDTA pancreatic enzyme. Adjust the cell count to 1×10^5/mL and inoculate the cells in 96-pore plate, each pore containing 100 μL. Culture the cells in the 37° C. CO2 incubator, and administer the drug 24 h later. Add pharmaceutical (CJH compound series) of different concentrations to the administration group. Set up 5 dosage groups for each pharmaceutical, respectively 100, 10, 1, 0.1, 0.01 μmol/L. Set up three complex pores for each concentration. Set up blank control, DMSO (0.8%) solvent control and cis-platinum positive control. After 48 h of culture in the 37 ° C. incubator containing 5% CO2, measure the OD value through MTT method and calculate the cell inhibition ratio.
(§5) After 48 h of culture of human lung cancer (A549), human ovarian cancer (SKOV3). human melanoma (A375) and human colon cancer (LOVO) cells, stop it and add 10 μL 0.5% MTT solution to each pore. Place it in the CO2 incubator for 4 h. Remove the liquid from each pore, respectively add 0.2 mL DMSO solution, and oscillate it adequately on the table concentrator under low frequency so that the blueviolet crystal Formazan is dissolved adequately. Place it in the microplate reader and record the OD value at the wavelength of […]. Calculate the average OD value of three parallel pores of different concentrations, and calculate the cell inhibition ratio and IC50 of each tested pharmaceutical under different concentrations based on the average.
(§6) Inhibition ratio (%)=[1-tested sample OD/negative control group OD]×100%.
On the technique in general: Formazan colour is commonly taken as a measure of viable cells.

Assay [2] has as its system human lung cancer (A549), human ovarian cancer (SKOV3), human melanoma (A375) and human colon cancer (LOVO) cells. Briefly: MTT tumor cell growth inhibition, overall comment on the four cell lines. The conditions noted are these: summary of the IC50 data over A549, SKOV3, A375, LOVO. The procedure:
as §1, §2, §3
as §4, with “After 48 h of culture in the 37 ° C. incubator containing 5% CO2, measure the OD value through MTT method and calculate the cell inhibition ratio.” left out
After 48 h of culture of human lung cancer (A549), human ovarian cancer (SKOV3). human melanoma (A375) and human colon cancer (LOVO) cells, stop it and add 10 μL 0.5% MTT solution to each pore. […] Place it in the microplate reader and record the OD value at the wavelength of […]. […]

For assay [3], the system named is human colon cancer (LOVO) cells. Briefly: MTT tumor cell growth inhibition, human colon cancer (LOVO). The conditions noted are these: 48 h culture, MTT method, read-out: IC50 value of target compound against cancer cell proliferation, LOVO. Here is the method:
as §1, §2, §3, §4, §5, §6

The subject of assay [4] is human lung cancer (A549) cells. Briefly: MTT tumor cell growth inhibition, human lung cancer (A549). The following applies: A549, 48 h culture, MTT method, read-out: IC50 value of target compound against cancer cell proliferation, A549. Here is the method:
as §1, §2, §3, §4, §5, §6

For assay [5], the system named is human ovarian cancer (SKOV3) cells. In words: MTT tumor cell growth inhibition, human ovarian cancer (SKOV3). The following applies: SKOV3, 48 h culture, MTT method, read-out: IC50 value of target compound against cancer cell proliferation, SKOV3. The procedure: as §1, §2, §3, §4, §5, §6

With `CCCc1ccc(OCC(O)CN(C)Cc2ccc(OCCN3CCC(C)CC3)c(OC)c2)c(OC)c1` (stereo not shown) [CHJ03011, 1-((3-methoxy-4-(2-(4-methylpiperidin-1-yl)ethoxy)benzyl)(methyl)amino)-3-(2-methoxy-4-propylphenoxy)propan-2-ol], the IC50 in assay [1] (Homo sapiens, A-375) stood at 1.82 ± 1.23 µM; in assay [3] (Homo sapiens), 15.2 ± 1.78 µM; in assay [4] (Homo sapiens), 10.56 ± 0.02 µM; in assay [5] (Homo sapiens, SK-OV-3), 21.2 ± 1.08 µM. For the same compound, the “anti-cancer activity, in words” value in assay [2] is listed as “still effective against cancer”.

In the case of `COc1cc(CN(C)CC(O)COc2c(Br)cc(Br)cc2Br)ccc1OCCN1CCC(C)CC1` (stereo not shown) [CHJ04022, 1-((3-methoxy-4-(2-(4-methylpiperidin-1-yl)ethoxy)benzyl)(methy)amino)-3-(2,4,6-tribromnophenoxy)propan-2-ol], the IC50 in assay [1] (Homo sapiens, A-375) amounted to 0.05 ± 0.01 µM; in assay [3] (Homo sapiens) it was 0.69 ± 0.03 µM; in assay [4] (Homo sapiens), 1.88 ± 0.19 µM; in assay [5] (Homo sapiens, SK-OV-3) it was 1.03 ± 0.24 µM. In addition, the “anti-cancer activity, in words” value in assay [2] was “the most active, as active as the cis-platinum in the control group”.

For the compound `COc1cc(CN(C)CC(O)COc2ccc(NC(C)=O)cc2)ccc1OCCN1CCC(C)CC1` (stereo not shown) [CHJ04061, N-(4-2-hydroxy 3-((3-methoxy-4-(2-(4-methylpiperidin-1-yl)ethoxy)benzyl)(methyl)amino)propoxy)phenypacetamide], the “anti-cancer activity, in words” value in assay [2] was “lowered prominently”. Further, the IC50 in assay [3] (Homo sapiens) was found to be 97.1 ± 4.21 µM; in assay [4] (Homo sapiens), 333.1 ± 2.7 µM; in assay [5] (Homo sapiens, SK-OV-3) it was 143 ± 3.1 µM.

In the case of `COc1cc(CN(C)CC(O)COc2c(Br)cc(Br)cc2Br)ccc1OCCN1CCCC1` (stereo not shown) [CHJ04068, 1-((3-methoxy-4-(2-(pyrrolidin-1-yl)ethoxy)henzyl)(methyl)amino)-3-(2,4,6-tribromophenoxy)propan-2-ol], the IC50 in assay [1] (Homo sapiens, A-375) was determined as 1.54 ± 1.34 µM; in assay [3] (Homo sapiens), 0.52 ± 0.4 µM; in assay [4] (Homo sapiens) it was 5.46 ± 1.76 µM; in assay [5] (Homo sapiens, SK-OV-3), 4.21 ± 1.23 µM. Besides, the “anti-cancer activity, in words” value in assay [2] is reported as “lowered prominently; also recorded: the most active, as active as the cis-platinum in the control group”.

`COc1cc(CN(C)CC(O)COc2ccc(Br)c(C(F)(F)F)c2)ccc1OCCn1ccnc1` (stereo not shown) [CHJ04097, 1-((4-(2-(1H-imidazol-1-yl)ethoxy)-3-methoxybenzyl)(methyl)amino)-3-(4-bromo-3-(trifluoromethyl)phenoxy)propari-ol]: the IC50 in assay [1] (Homo sapiens, A-375) was 14.8 ± 2.77 µM; in assay [3] (Homo sapiens), 32.1 ± 3.39 µM; in assay [4] (Homo sapiens) it was 24.4 ± 2.78 µM; in assay [5] (Homo sapiens, SK-OV-3), 33.6 ± 2.47 µM.

Take `COc1cc(CN(C)CC(O)COc2cc(C(F)(F)F)ccc2Br)ccc1OCCn1ccnc1` (stereo not shown) [CHJ04099, 1-((4-(2-(1H-imidazol-1yl)ethoxy)-3-methoxybenzyl)(methyl)amino)-3-(2-bromo-5-(trifluoromethyl)phenoxy)propan-2-ol]: the IC50 in assay [1] (Homo sapiens, A-375) was found to be 16.2 ± 2.11 µM; in assay [3] (Homo sapiens), 38.2 ± 2.94 µM; in assay [4] (Homo sapiens), 23.1 ± 2.58 µM; in assay [5] (Homo sapiens, SK-OV-3), 37.4 ± 2.48 µM.

Take `COc1cc(CN(C)CC(O)COc2ccc(Br)cc2)ccc1OCCn1ccnc1` (stereo not shown) [CHJ05001]: the IC50 stood at 15.8 ± 1.73 µM in assay [1] (Homo sapiens, A-375); 49.1 ± 2.71 µM in assay [3] (Homo sapiens); 30.7 ± 3.12 µM in assay [4] (Homo sapiens); 40.1 ± 3.02 µM in assay [5] (Homo sapiens, SK-OV-3).

With `COc1cc(CN(C)CC(O)COc2ccc(C)c(Br)c2)ccc1OCCn1ccnc1` (stereo not shown) [CHJ05003, 1-((4-(2-(1H-imidazol-1-yl)ethoxy)03-methoxybenzyl)(methyl)amino)-3-(3-bromo-4-methylphenoxy)propan-2-ol], the IC50 in assay [1] (Homo sapiens, A-375) stood at 24.9 ± 1.93 µM; in assay [3] (Homo sapiens) it was 52.5 ± 1.22 µM; in assay [4] (Homo sapiens), 34 ± 2.11 µM; in assay [5] (Homo sapiens, SK-OV-3), 35.1 ± 1.35 µM.

As for `CCOc1ccccc1OCC(O)CN(C)Cc1ccc(OCCN2CCC(C)CC2)c(OC)c1` (stereo not shown) [SAMS10], the IC50 came to 27.1 ± 0.66 µM in assay [1] (Homo sapiens, A-375); 8.48 ± 0.07 µM in assay [3] (Homo sapiens); 14.64 ± 0.06 µM in assay [4] (Homo sapiens); 21.07 ± 0.18 µM in assay [5] (Homo sapiens, SK-OV-3).

With `N.N.[Cl][Pt][Cl]` [cisplatin, reference compound], the IC50 in assay [1] turned out to be 5.91 ± 1.64 µM; in assay [3], 2.64 ± 1.12 µM; in assay [4], 4.21 ± 1.31 µM; in assay [5] it was 1.91 ± 0.43 µM.
